Consider 15 molecules from patent publication US20250059188A1, “ARYLSULPHONAMIDE COMPOUNDS” (Anaxis Pharma Pty Ltd, priority 2021, published 2025).

The target in one assay is human RIPK3 (Homo sapiens (Human), UniProt Q9Y572). As to the kind of experiment: KINOMEscan binding assay, human RIPK3. The settings on record: equilibrium dissociation constant. The essentials: (§1)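 Tagged kinase + immobilized ligand beads + compound; eluted kinase quantified by qPCR. Kinase source: T7 phage lysate (BL21-derived E. coli, 32 °C) or HEK-293 with DNA tag. 11-pt 3-fold series, 1% DMSO, top 30,000 nM (most). Hill fit, slope −1 → Kd.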
Sequence of human RIPK3 (Q9Y572 whole entry): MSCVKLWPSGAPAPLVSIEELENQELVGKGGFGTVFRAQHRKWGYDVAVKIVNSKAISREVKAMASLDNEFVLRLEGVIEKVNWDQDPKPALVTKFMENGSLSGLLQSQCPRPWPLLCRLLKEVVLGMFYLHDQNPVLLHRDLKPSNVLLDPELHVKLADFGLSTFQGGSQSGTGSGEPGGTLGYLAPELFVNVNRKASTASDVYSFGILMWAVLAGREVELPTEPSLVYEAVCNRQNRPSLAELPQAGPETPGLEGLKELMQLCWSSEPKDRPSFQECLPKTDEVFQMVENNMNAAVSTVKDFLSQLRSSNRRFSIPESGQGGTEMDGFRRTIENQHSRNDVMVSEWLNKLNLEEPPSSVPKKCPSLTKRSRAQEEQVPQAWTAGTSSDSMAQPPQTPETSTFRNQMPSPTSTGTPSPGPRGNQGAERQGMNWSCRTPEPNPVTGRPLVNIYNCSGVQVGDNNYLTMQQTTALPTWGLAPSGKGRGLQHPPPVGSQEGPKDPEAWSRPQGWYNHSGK

In assay [1] the test system is U937 human histiocytic leukemia cell line. As to the kind of experiment: Inhibition of TSQ induced necroptosis in U937 cells (CellTitre-Glo). The settings on record: Homo sapiens, U-937, TSQ cocktail (TNF, Smac mimetic, Q-VD-OPh), 48 hours, read-out: Inhibition of TSQ-induced necroptosis (IC50 cell-based assay). The essentials: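 Necroptosis was induced with TNF-Fc (100 ng/ml), Smac mimetic (500 nM) and Q-VD-OPh (10 μM) in 20000 U937 cells/well exposed to a 10-point, 3-fold compound series (top 36 μM, 0.3% DMSO). ATP luminescence read after 48 h; 4-parameter fit gave IC50. Parallel TSQ-free wells assessed compound toxicity.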

In the next assay the test system is U937 cells. As to the kind of experiment: Counter screen: U937 cell viability without TSQ cocktail (off-target effect). Also noted: species or system human. The note with it: Homo sapiens, U-937, compound without TSQ cocktail, read-out: Off-target effect (IC50 cell-based assay). The essentials:
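Off-target viability counter screen: compounds titrated 36 μM down 1:3 over 10 points (0.3% DMSO) on 20,000 U937 cells/well, no TNF/Smac mimetic/Q-VD-OPh added, 48 h incubation. ATP-based CellTiter-Glo luminescence, four-parameter logistic IC50.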
Background: The purpose of a counterscreen is to sort out artefacts and off-target activity.

Another assay concerns the target human RIPK1 (Homo sapiens (Human), UniProt Q13546). The assay is described as follows: KINOMEscan binding assay, human RIPK1. The note with it: equilibrium dissociation constant. In a few lines:
as §1

The target of a further assay is human MLKL (full length) (Homo sapiens (Human), UniProt Q8NB16). As to the kind of experiment: KINOMEscan binding assay, human MLKL (full length). The settings on record: equilibrium dissociation constant. The essentials: as §1
Sequence of human MLKL (full length) (Q8NB16 whole entry): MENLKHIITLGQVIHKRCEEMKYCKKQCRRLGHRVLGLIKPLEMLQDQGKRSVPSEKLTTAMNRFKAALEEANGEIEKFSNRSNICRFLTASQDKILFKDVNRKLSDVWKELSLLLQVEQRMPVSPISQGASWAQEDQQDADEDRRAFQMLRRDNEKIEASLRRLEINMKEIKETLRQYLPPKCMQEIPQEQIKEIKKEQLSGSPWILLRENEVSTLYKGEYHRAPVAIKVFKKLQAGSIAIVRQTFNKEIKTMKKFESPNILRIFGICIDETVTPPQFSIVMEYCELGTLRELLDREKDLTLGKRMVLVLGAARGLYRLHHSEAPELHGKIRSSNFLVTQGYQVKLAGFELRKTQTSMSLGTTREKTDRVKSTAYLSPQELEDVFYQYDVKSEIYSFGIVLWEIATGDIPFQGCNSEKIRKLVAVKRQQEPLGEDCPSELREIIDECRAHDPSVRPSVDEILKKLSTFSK

The term Kd denotes the concentration at which binding is half-saturated. Low values mean tighter binding, high ones weaker binding. As usually defined, the IC50 is the concentration that inhibits the measured activity by half.

Sequence of human RIPK1 (Q13546 whole entry): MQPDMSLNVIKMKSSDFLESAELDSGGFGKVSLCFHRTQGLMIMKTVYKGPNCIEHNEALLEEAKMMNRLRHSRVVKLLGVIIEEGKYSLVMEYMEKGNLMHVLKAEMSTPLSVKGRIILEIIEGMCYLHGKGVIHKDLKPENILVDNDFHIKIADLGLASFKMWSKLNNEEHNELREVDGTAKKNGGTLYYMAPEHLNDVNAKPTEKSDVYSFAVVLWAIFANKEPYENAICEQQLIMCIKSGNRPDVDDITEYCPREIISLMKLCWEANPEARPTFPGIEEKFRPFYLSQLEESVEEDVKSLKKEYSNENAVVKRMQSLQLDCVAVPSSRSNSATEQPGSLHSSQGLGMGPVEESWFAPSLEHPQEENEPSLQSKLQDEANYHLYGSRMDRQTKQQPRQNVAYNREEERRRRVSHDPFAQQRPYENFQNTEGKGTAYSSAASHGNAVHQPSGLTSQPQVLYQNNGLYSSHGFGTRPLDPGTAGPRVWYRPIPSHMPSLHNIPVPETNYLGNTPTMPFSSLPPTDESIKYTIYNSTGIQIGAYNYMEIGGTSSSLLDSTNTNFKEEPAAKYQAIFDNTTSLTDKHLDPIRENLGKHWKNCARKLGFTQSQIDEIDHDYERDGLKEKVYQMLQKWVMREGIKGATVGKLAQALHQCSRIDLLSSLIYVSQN

Consider `C[C@H](Oc1cc(-c2nn(C)c3c(-c4ccc(N5CCOCC5)nc4)cnc(N)c23)ccc1NS(=O)(=O)C(F)F)c1ccc(F)cc1` [Compound 115, (S)-N-(4-(4-amino-1-methyl-7-(6-morpholinopyridin-3-yl)-1H-pyrazolo[4,3-c]pyridin-3-yl)-2-(1-(4-fluorophenyl)ethoxy)phenyl)-1,1-difluoromethanesulfonamide], for which the dissociation constant (Kd) is greater than 10 µM at human RIPK3, greater than 10 µM on human RIPK1 and 0.001 to 0.1 µM on human MLKL (full length). Also, the IC50 was 0.01 to 1 µM in assay [1] and greater than 10 µM in the assay on U937 cells.

Turning to `C[C@H](Oc1cc(-c2nn(C)c3c(-c4ccnc(C(C)(C)C)c4)cnc(N)c23)ccc1NS(=O)(=O)C(F)F)c1ccc(F)cc1` [Compound 48, (S)-N-(4-(4-amino-7-(2-(tert-butyl)pyridin-4-yl)-1-methyl-1H-pyrazolo[4,3-c]pyridin-3-yl)-2-(1-(4-fluorophenyl)ethoxy)phenyl)-1,1-difluoromethanesulfonamide], the figures for the Kd on human RIPK3, on human RIPK1 and on human MLKL (full length) were greater than 10 µM, greater than 10 µM and 0.001 to 0.1 µM, respectively. For the same molecule, the concentration for half-maximal inhibition (IC50) in assay [1] was 1 to 10 µM; with U937 cells, greater than 10 µM.

Regarding `CC(C)n1cc(-c2cnc(N)c3c(-c4ccc(NS(=O)(=O)C(F)F)c(O[C@@H](C)c5ccc(F)cc5)c4)nn(C)c23)cn1` [Compound 31, (S)-N-(4-(4-amino-7-(1-isopropyl-1H-pyrazol-4-yl)-1-methyl-1H-pyrazolo[4,3-c]pyridin-3-yl)-2-(1-(4-fluorophenyl)ethoxy)phenyl)-1,1-difluoromethanesulfonamide], the Kd is greater than 10 µM on human RIPK3, greater than 10 µM on human RIPK1 and less than 0.001 µM on human MLKL (full length). Besides, the results for the IC50 (in assay [1]; with U937 cells) were less than 0.01 µM and greater than 10 µM, respectively.

For the molecule `CC(C)n1nc(-c2ccc(NS(=O)(=O)C(F)F)c(O[C@@H](C)c3ccc(F)cc3)c2)c2c(N)ncc(-c3ccncc3)c21` [Compound 50, (S)-N-(4-(4-amino-1-isopropyl-7-(pyridin-4-yl)-1H-pyrazolo[4,3-c]pyridin-3-yl)-2-(1-(4-fluorophenyl)ethoxy)phenyl)-1,1-difluoromethanesulfonamide], the Kd at human RIPK3 was greater than 10 µM; at human RIPK1, greater than 10 µM; at human MLKL (full length) it was less than 0.001 µM. For the same molecule, the values for the IC50 (in assay [1]; with U937 cells) were 0.01 to 1 µM and greater than 10 µM, respectively.

Take `C[C@H](Oc1cc(-c2nn(C)c3c(-c4cnc(N5CCN(C)CC5)nc4)cnc(N)c23)ccc1NS(=O)(=O)C(F)F)c1ccc(F)cc1` [Compound 105, (S)-N-(4-(4-amino-1-methyl-7-(2-(4-methylpiperazin-1-yl)pyrimidin-5-yl)-1H-pyrazolo[4,3-c]pyridin-3-yl)-2-(1-(4-fluorophenyl)ethoxy)phenyl)-1,1-difluoromethanesulfonamide]: the results for the Kd at human RIPK3, at human RIPK1 and on human MLKL (full length) were greater than 10 µM, greater than 10 µM and less than 0.001 µM, respectively. Moreover, the figures for the half-maximal inhibitory concentration (IC50) (in assay [1]; in the assay with U937 cells) were 0.01 to 1 µM and greater than 10 µM, respectively.

`C[C@H](Oc1cc(-c2nn(C)c3c(C4=CCN(C)CC4)cnc(N)c23)ccc1NS(=O)(=O)C(F)F)c1ccc(F)cc1` [Compound 21, (S)-N-(4-(4-amino-1-methyl-7-(1-methyl-1,2,3,6-tetrahydropyridin-4-yl)-1H-pyrazolo[4,3-c]pyridin-3-yl)-2-(1-(4-fluorophenyl)ethoxy)phenyl)-1,1-difluoromethanesulfonamide]: the equilibrium dissociation constant (Kd) at human RIPK3 is greater than 10 µM; at human RIPK1, greater than 10 µM; at human MLKL (full length), less than 0.001 µM. For the same molecule, the values for the IC50 (in assay [1]; in the assay with U937 cells) were 1 to 10 µM and greater than 10 µM, respectively.

With `C[C@H](Oc1cc(-c2nn(C)c3c(-c4cnn(C5CN(CC(F)(F)F)C5)c4)cnc(N)c23)ccc1NS(=O)(=O)C(F)F)c1ccc(F)cc1` [Compound 77, (S)-N-(4-(4-amino-1-methyl-7-(1-(1-(2,2,2-trifluoroethyl)azetidin-3-yl)-1H-pyrazol-4-yl)-1H-pyrazolo[4,3-c]pyridin-3-yl)-2-(1-(4-fluorophenyl)ethoxy)phenyl)-1,1-difluoromethanesulfonamide], the Kd at human RIPK3 was greater than 10 µM; at human RIPK1, greater than 10 µM; on human MLKL (full length), less than 0.001 µM. Also, the values for the half-maximal inhibitory concentration (IC50) (in assay [1]; in the assay on U937 cells) were less than 0.01 µM and greater than 10 µM, respectively.

For the molecule `Cn1nc(-c2ccc(NS(=O)(=O)C(F)F)cc2OCc2cccc(F)c2)c2c(N)ncc(-c3cnn(C4CCOCC4)c3)c21` [Compound 135, N-(4-(4-amino-1-methyl-7-(1-(tetrahydro-2H-pyran-4-yl)-1H-pyrazol-4-yl)-1H-pyrazolo[4,3-c]pyridin-3-yl)-3-((3-fluorobenzyl)oxy)phenyl)-1,1-difluoromethanesulfonamide], the Kd was greater than 10 µM on human RIPK3, greater than 10 µM at human RIPK1 and less than 0.001 µM at human MLKL (full length). For the same molecule, the half-inhibitory concentration (IC50) in assay [1] is 0.01 to 1 µM; with U937 cells, greater than 10 µM.

On to `C[C@H](Oc1cc(-c2cnn3c(-c4cnn(CCO)c4)cnc(N)c23)ccc1NS(=O)(=O)C(F)F)c1ccc(F)cc1` [Compound 37, (S)-N-(4-(4-amino-7-(1-(2-hydroxyethyl)-1H-pyrazol-4-yl)pyrazolo[1,5-a]pyrazin-3-yl)-2-(1-(4-fluorophenyl)ethoxy)phenyl)-1,1-difluoromethanesulfonamide], for which the dissociation constant Kd at human RIPK3 was greater than 10 µM; on human RIPK1, greater than 10 µM; on human MLKL (full length), less than 0.001 µM. Also, the figures for the IC50 (in assay [1]; with U937 cells) were 0.01 to 1 µM and greater than 10 µM, respectively.

For the molecule `C[C@H](Oc1cc(-c2nn(C)c3c(-c4cnn(C5CC6CCC(C5)N6C)c4)cnc(N)c23)ccc1NS(=O)(=O)C(F)F)c1ccc(F)cc1` (stereo partly drawn) [Compound 73, N-(4-(4-amino-1-methyl-7-(1-(8-methyl-8-azabicyclo[3.2.1]octan-3-yl)-1H-pyrazol-4-yl)-1H-pyrazolo[4,3-c]pyridin-3-yl)-2-((S)-1-(4-fluorophenyl)ethoxy)phenyl)-1,1-difluoromethanesulfonamide], the dissociation constant Kd is greater than 10 µM on human RIPK3, greater than 10 µM at human RIPK1 and less than 0.001 µM on human MLKL (full length). Moreover, the IC50 is 0.01 to 1 µM in assay [1] and greater than 10 µM in the assay on U937 cells.

On to `C[C@H](Oc1cc(-c2nn(C)c3c(-c4ccc5c(c4)n(C)c(=O)n5C)cnc(N)c23)ccc1NS(=O)(=O)C(F)F)c1ccc(F)cc1` [Compound 161, (S)-N-(4-(4-amino-7-(1,3-dimethyl-2-oxo-2,3-dihydro-1H-benzo[d]imidazol-5-yl)-1-methyl-1H-pyrazolo[4,3-c]pyridin-3-yl)-2-(1-(4-fluorophenyl)ethoxy)phenyl)-1,1-difluoromethanesulfonamide], for which the dissociation constant Kd on human RIPK3 is greater than 10 µM; at human RIPK1, greater than 10 µM; at human MLKL (full length) it was less than 0.001 µM. Also, the IC50 in assay [1] was 1 to 10 µM; in the assay with U937 cells, greater than 10 µM.

Take `C[C@H](Oc1cc(-c2nn(C)c3c(-c4cnn(CCN5CC(C)(C)C5)c4)cnc(N)c23)ccc1NS(=O)(=O)C(F)F)c1ccc(F)cc1` [Compound 75, (S)-N-(4-(4-amino-7-(1-(2-(3,3-dimethylazetidin-1-yl)ethyl)-1H-pyrazol-4-yl)-1-methyl-1H-pyrazolo[4,3-c]pyridin-3-yl)-2-(1-(4-fluorophenyl)ethoxy)phenyl)-1,1-difluoromethanesulfonamide]: the Kd was greater than 10 µM on human RIPK3, greater than 10 µM on human RIPK1 and less than 0.001 µM on human MLKL (full length). The half-inhibitory concentration (IC50) in assay [1] was less than 0.01 µM; with U937 cells, greater than 10 µM.

As to `C[C@H](Oc1cc(-c2nn(C)c3c(-c4ccccc4Cl)cnc(N)c23)ccc1NS(=O)(=O)C(F)F)c1ccc(F)cc1` [Compound 85, (S)-N-(4-(4-amino-7-(2-chlorophenyl)-1-methyl-1H-pyrazolo[4,3-c]pyridin-3-yl)-2-(1-(4-fluorophenyl)ethoxy)phenyl)-1,1-difluoromethanesulfonamide], the figures for the dissociation constant (Kd) on human RIPK3, on human RIPK1 and at human MLKL (full length) were greater than 10 µM, greater than 10 µM and 0.001 to 0.1 µM, respectively. The IC50 in assay [1] is 1 to 10 µM; in the assay with U937 cells it was greater than 10 µM.

In the case of `CC(C)n1nc(-c2ccc(NS(=O)(=O)C(F)F)c(O[C@@H](C)c3ccc(F)cc3)c2)c2c(N)ncc(-c3cnn(C)c3)c21` [Compound 52, (S)-N-(4-(4-amino-1-isopropyl-7-(1-methyl-1H-pyrazol-4-yl)-1H-pyrazolo[4,3-c]pyridin-3-yl)-2-(1-(4-fluorophenyl)ethoxy)phenyl)-1,1-difluoromethanesulfonamide], the Kd on human RIPK3 is greater than 10 µM; at human RIPK1, greater than 10 µM; at human MLKL (full length) it was 0.001 to 0.1 µM. The IC50 in assay [1] is 0.01 to 1 µM; with U937 cells, greater than 10 µM.

As for `C[C@H](Oc1cc(-c2nn(C)c3c(-c4cnn(C5CCNCC5)c4)cnc(N)c23)ccc1NS(=O)(=O)C(F)F)c1ccc(F)cc1` [Compound 59, (S)-N-(4-(4-amino-1-methyl-7-(1-(piperidin-4-yl)-1H-pyrazol-4-yl)-1H-pyrazolo[4,3-c]pyridin-3-yl)-2-(1-(4-fluorophenyl)ethoxy)phenyl)-1,1-difluoromethanesulfonamide], the dissociation constant (Kd) on human RIPK3 was greater than 10 µM; on human RIPK1 it was greater than 10 µM; on human MLKL (full length), less than 0.001 µM. Also, the concentration for half-maximal inhibition (IC50) in assay [1] was 0.01 to 1 µM; in the assay on U937 cells, greater than 10 µM.
